Test results published in the supplement of paper PMC10307832.

Assays:
Test in all cases: relative viability (nuclei count vs DMSO), 5 days (fraction); higher = more cells survive
[1] = test system: HOP-62
In short: (§1)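 Lung cancer cell lines, seeded in 1536-well plates, were treated the following day by pin tool with a single drug or with five library-drug doses (not always all listed) in √10 steps on top of a fixed anchor-drug dose. Cells were fixed and nuclei stained in one step after 5 days, and nuclei were counted. Relative viability is the nuclei count for treated wells divided by that for vehicle wells, reported as medians of duplicate plates.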

[2] = test system: NCI-H596
In short: as §1

[3] = test system: NCI-H1651
In short: as §1

[4] = test system: ABC-1
In short: as §1

[5] = test system: NCI-H1355
In short: as §1

[6] = test system: LC-2-ad
In short: as §1

[7] = test system: NCI-H727
In short: as §1

[8] = test system: PC-3 [JPC-3]
In short: as §1

[9] = test system: NCI-H460
In short: as §1

[10] = test system: NCI-H322M
In short: as §1

[11] = test system: CAL-12T
In short: as §1

[12] = test system: 201T
In short: as §1

[13] = test system: NCI-H2087
In short: as §1

[14] = test system: NCI-H2342
In short: as §1

[15] = test system: NCI-H23
In short: as §1

[16] = test system: NCI-H1944
In short: as §1

[17] = test system: ChaGo-K-1
In short: as §1

[18] = test system: NCI-H2126
In short: as §1

[19] = test system: NCI-H1666
In short: as §1

SMILES: C=C1C(=O)O[C@@H](CCCCCCCC)[C@@H]1C(=O)O [C-75] + NC(=O)Nc1cc(-c2cccc(F)c2)sc1C(=O)N[C@H]1CCCNC1 [AZD7762] (partner 0.2 µM)
- relative viability ([1]; first compound 0.08 µM): 0.592
- relative viability ([1]; first compound 0.253 µM): 1.09
- relative viability ([1]; first compound 0.8 µM): 0.522
- relative viability ([1]; first compound 2.53 µM): 0.657
- relative viability ([1]; first compound 8 µM): 0.91
- relative viability ([2]; first compound 0.08 µM): 1.23
- relative viability ([2]; first compound 0.253 µM): 1.12
- relative viability ([2]; first compound 0.8 µM): 0.998
- relative viability ([2]; first compound 2.53 µM): 0.975
- relative viability ([2]; first compound 8 µM): 0.988
- relative viability ([3]; first compound 0.08 µM): 0.431
- relative viability ([3]; first compound 0.253 µM): 0.511
- relative viability ([3]; first compound 0.8 µM): 0.358
- relative viability ([3]; first compound 2.53 µM): 0.374
- relative viability ([3]; first compound 8 µM): 0.509
- relative viability ([4]; first compound 0.08 µM): 0.736
- relative viability ([4]; first compound 0.253 µM): 0.461
- relative viability ([4]; first compound 0.8 µM): 0.685
- relative viability ([4]; first compound 2.53 µM): 0.672
- relative viability ([4]; first compound 8 µM): 0.775
- relative viability ([5]; first compound 0.08 µM): 0.742
- relative viability ([5]; first compound 0.253 µM): 0.831
- relative viability ([5]; first compound 0.8 µM): 0.738
- relative viability ([5]; first compound 2.53 µM): 0.663
- relative viability ([5]; first compound 8 µM): 0.764
- relative viability ([6]; first compound 0.08 µM): 0.833
- relative viability ([6]; first compound 0.253 µM): 0.813
- relative viability ([6]; first compound 0.8 µM): 0.819
- relative viability ([6]; first compound 2.53 µM): 0.728
- relative viability ([6]; first compound 8 µM): 0.853
- relative viability ([7]; first compound 0.08 µM): 0.694
- relative viability ([7]; first compound 0.253 µM): 0.906
- relative viability ([7]; first compound 0.8 µM): 0.4
- relative viability ([7]; first compound 2.53 µM): 0.587
- relative viability ([7]; first compound 8 µM): 0.388
- relative viability ([8]; first compound 0.08 µM): 0.845
- relative viability ([8]; first compound 0.253 µM): 0.801
- relative viability ([8]; first compound 0.8 µM): 0.801
- relative viability ([8]; first compound 2.53 µM): 0.6
- relative viability ([8]; first compound 8 µM): 0.753
- relative viability ([9]; first compound 0.08 µM): 0.685
- relative viability ([9]; first compound 0.253 µM): 0.805
- relative viability ([9]; first compound 0.8 µM): 0.595
- relative viability ([9]; first compound 2.53 µM): 0.555
- relative viability ([9]; first compound 8 µM): 0.706
- relative viability ([10]; first compound 0.08 µM): 0.587
- relative viability ([10]; first compound 0.253 µM): 0.684
- relative viability ([10]; first compound 0.8 µM): 0.552
- relative viability ([10]; first compound 8 µM): 0.587
- relative viability ([11]; first compound 0.08 µM): 0.683
- relative viability ([11]; first compound 0.253 µM): 0.713
- relative viability ([11]; first compound 0.8 µM): 0.586
- relative viability ([11]; first compound 2.53 µM): 0.548
- relative viability ([11]; first compound 8 µM): 0.64
- relative viability ([12]; first compound 0.08 µM): 0.588
- relative viability ([12]; first compound 0.253 µM): 0.687
- relative viability ([12]; first compound 0.8 µM): 0.631
- relative viability ([12]; first compound 2.53 µM): 0.507
- relative viability ([12]; first compound 8 µM): 0.566
- relative viability ([13]; first compound 0.08 µM): 1.59
- relative viability ([13]; first compound 0.253 µM): 1.23
- relative viability ([13]; first compound 0.8 µM): 1.07
- relative viability ([13]; first compound 2.53 µM): 1.3
- relative viability ([13]; first compound 8 µM): 1.09
- relative viability ([14]; first compound 0.08 µM): 0.569
- relative viability ([14]; first compound 0.253 µM): 0.562
- relative viability ([14]; first compound 0.8 µM): 0.45
- relative viability ([14]; first compound 2.53 µM): 0.458
- relative viability ([14]; first compound 8 µM): 0.505
- relative viability ([15]; first compound 0.08 µM): 0.255
- relative viability ([15]; first compound 0.253 µM): 0.43
- relative viability ([15]; first compound 0.8 µM): 0.263
- relative viability ([15]; first compound 2.53 µM): 0.197
- relative viability ([15]; first compound 8 µM): 0.376
- relative viability ([16]; first compound 0.08 µM): 0.566
- relative viability ([16]; first compound 0.253 µM): 0.648
- relative viability ([16]; first compound 0.8 µM): 0.381
- relative viability ([16]; first compound 2.53 µM): 0.621
- relative viability ([16]; first compound 8 µM): 0.517
- relative viability ([17]; first compound 0.08 µM): 0.857
- relative viability ([17]; first compound 0.253 µM): 0.921
- relative viability ([17]; first compound 0.8 µM): 0.777
- relative viability ([17]; first compound 2.53 µM): 0.603
- relative viability ([17]; first compound 8 µM): 0.812
- relative viability ([18]; first compound 0.08 µM): 0.953
- relative viability ([18]; first compound 0.253 µM): 1.13
- relative viability ([18]; first compound 0.8 µM): 0.965
- relative viability ([18]; first compound 2.53 µM): 0.886
- relative viability ([18]; first compound 8 µM): 1.01
- relative viability ([19]; first compound 0.08 µM): 0.801
- relative viability ([19]; first compound 0.253 µM): 0.955
- relative viability ([19]; first compound 0.8 µM): 0.725
- relative viability ([19]; first compound 2.53 µM): 0.657
- relative viability ([19]; first compound 8 µM): 0.708
